Literature values as cited in patent US20040076968A1, “Method for detecting pre-disposition to hepatotoxicity” (priority 2000, published 2004).

Target: T1, UGT1A6*2 allelic variant (Homo sapiens, UniProt P19224, R184S/T181A)
T1 sequence (P19224 27-532 T181A/R184S): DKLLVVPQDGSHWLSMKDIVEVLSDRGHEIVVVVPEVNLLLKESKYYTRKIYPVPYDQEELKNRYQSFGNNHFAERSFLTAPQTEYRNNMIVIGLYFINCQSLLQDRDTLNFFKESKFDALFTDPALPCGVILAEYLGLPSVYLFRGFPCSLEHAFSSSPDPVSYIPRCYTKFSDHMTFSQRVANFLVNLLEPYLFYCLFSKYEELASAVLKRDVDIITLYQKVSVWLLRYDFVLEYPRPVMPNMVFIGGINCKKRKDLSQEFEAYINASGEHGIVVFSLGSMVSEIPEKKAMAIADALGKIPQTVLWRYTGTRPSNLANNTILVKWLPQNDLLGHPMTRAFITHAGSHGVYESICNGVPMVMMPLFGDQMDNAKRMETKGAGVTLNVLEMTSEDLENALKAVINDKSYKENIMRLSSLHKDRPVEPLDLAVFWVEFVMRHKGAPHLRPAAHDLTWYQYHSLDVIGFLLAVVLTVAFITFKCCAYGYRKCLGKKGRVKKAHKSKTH
Conditions: cited from earlier work; for metabolism compared with wild-type isoenzyme (in words): UGT1A6*2 expressed in COS cells

Compound | metabolism compared with wild-type isoenzyme (in words) | other results
Oc1cccc2ccccc12 [1-Naphtol] | normal levels | –
O=c1ccc2ccc(O)cc2o1 [7-hydroxycoumarin] | normal levels | –
Cc1cc(=O)oc2cc(O)ccc12 [7-hydroxy-4-methylcoumarin] | normal levels | –
COc1ccc(O)c(C(C)(C)C)c1 [butylated hydroxy anisole] | – | rate of metabolism relative to the wild-type isoenzyme (pH 6.4): 27-75%
N[C@@H](Cc1ccc(O)c(O)c1)C(=O)O [levodopa] | – | activity of UGT1A6 alleles Thr181Ala and Arg184Ser for the substrate: reduced activity
Oc1cccc(I)c1 [3iodophenol] | normal levels | –
